Assay results as given in patent US11834414B2, “1-methyl-4-[(4-phenylphenyl)sulfonylmethyl]cyclohexyanol and 1-methyl-4-[[4-(2-pyridyl)phenyl]sulfonylmethyl]cyclohexanol compounds and their therapeutic use” (Modern Biosciences Limited, priority 2018, dated 2023).
pIC50: −log10 of the molar value.

Experiments:
[1] = system: Thp1 human monocytic cells; assay: Thp1 Monocyte ATP Production Assay; format: cell-based; details: for pIC50: Thp1 cells, 24 hour incubation, ATPLite, 9-point range 10 μM to 10 nM, mean of 2 independent experiments; for potency in the Thp1 monocytic ATP assay (in words): compared to the reference compounds
Procedure: In vitro potency of test compounds was determined by incubation with Thp1 human monocytic cells and subsequent determination of Adenosine TriPhosphate (ATP) levels using firefly luciferase.
ATP is present in all metabolically active cells. When cells lose integrity, their ability to synthesise ATP is rapidly lost. […] See, e.g., Kang et al., 2015; Jiang et al., 2013. Levels of ATP can be monitored using a system based on firefly (Photinus pyralis) luciferase (see, e.g., Auld et al., 2009) using commercially available kits. A system known as
ATPlite™ was using to measure effects of the test compounds on cellular viability in vitro. This one-step assay system is an adenosine triphosphate (ATP) monitoring system based on the production of light caused by the reaction of ATP from the cells with added luciferase and D-luciferin, as illustrated in the reaction scheme below:
The emitted light is proportional to the ATP concentration.
Thp1 cells were plated at 112500 cells per well in 125 μL RPMI-1640 (no glucose) with 1% FBS in 96-well plates. Test compounds were prepared as 100 mM solutions in DMSO. These stock solutions were diluted in DMSO and then diluted 1000× in culture medium (RPMI) before being added directly to the wells so as to give the desired final compound concentration. After a 24 hour incubation at 37° C./5% CO2, ATPLite™ (Perkin Elmer) was added to each well (1:10 v/v, 10 μL). The plate was then incubated at room temperature for 5 minutes and the emitted light was quantified on Viewlux with a measurement time of 0.3 seconds and binning 4×4.
The average results for each test compound were expressed as a percent (%) of the average control value reflecting cell viability. The average values across the concentrations tested were then plotted and the IC50 for was calculated by fitting the data to a 4-parameter IC50 equation using software from Graf it (Erithacus Software). Each experiment was repeated twice and the data are presented as the mean IC50 from both experiments.

[2] = Human hepatocyte stability; format: in vitro ADME; details: human, pooled human hepatocytes, human hepatocytes, 1 μM, 60 minute incubation; for hepatocyte CLint at 1 μM: read-out: Human Clint (uL/min/million cells); for half-life at 1 μM: read-out: Human t1/2
Procedure: (§1) Metabolic stability of test compounds was measured by determination of the rate of disappearance of the compound when incubated in the presence of rat or human hepatocytes, a primary source of the most important enzymes (cytochrome P450s) involved in drug metabolism. Study of drug stability in the presence of primary hepatocytes is accepted as a valuable model permitting rapid prediction of in vivo drug stability.
(§2) Rat or human hepatocytes were obtained from a commercial source and viability was assessed using a trypan blue solution prior to use. Test compounds (final concentration 1 μM, 0.1% DMSO, 0.9% acetonitrile) or a marker (diclofenac or diltiazem, final assay concentration 1 μM, 0.1% DMSO, 0.9% acetonitrile) were incubated with pooled hepatocytes for a 60 minute period and samples removed at up to 6 time points and analysed by LC-MS/MS for the presence/amount of test compounds.
(§3) Each compound was incubated for 0, 5, 15, 30, 45, or 60 minutes. The reactions were stopped by the addition of methanol containing an internal standard (1 μM Tolbutamide) at the appropriate time points, mixed and placed at −20° C. for ≥1 hour to quench and allow protein to precipitate. All samples were centrifuged (2500×g, 20 minutes, 4° C.). The aliquots were analysed using LC-MS/MS. Reactions were performed in duplicate at 37° C.
(§4) Data were processed, and the results plotted as In(concentration) vs. time. The elimination rate constant (slope of the regression line, k) was calculated using the following formula, where C(t) is the concentration at time t and C(0) is the starting concentration:
(§5) The half-life (t1/2) was calculated using the following formula: […]
(§6) The intrinsic clearance (CIint) was calculated using the following formula, where [cell] is the hepatocyte concentration in the assay: […]

CYP2C9 = CYP2C9 (Homo sapiens (Human), UniProt P11712); assay: Human Cytochrome P450 Inhibition Assay (Bactosomes); format: in vitro ADME; details: recombinant Bactosomes, 10 minutes, 37° C.
Sequence of CYP2C9 (P11712 whole entry): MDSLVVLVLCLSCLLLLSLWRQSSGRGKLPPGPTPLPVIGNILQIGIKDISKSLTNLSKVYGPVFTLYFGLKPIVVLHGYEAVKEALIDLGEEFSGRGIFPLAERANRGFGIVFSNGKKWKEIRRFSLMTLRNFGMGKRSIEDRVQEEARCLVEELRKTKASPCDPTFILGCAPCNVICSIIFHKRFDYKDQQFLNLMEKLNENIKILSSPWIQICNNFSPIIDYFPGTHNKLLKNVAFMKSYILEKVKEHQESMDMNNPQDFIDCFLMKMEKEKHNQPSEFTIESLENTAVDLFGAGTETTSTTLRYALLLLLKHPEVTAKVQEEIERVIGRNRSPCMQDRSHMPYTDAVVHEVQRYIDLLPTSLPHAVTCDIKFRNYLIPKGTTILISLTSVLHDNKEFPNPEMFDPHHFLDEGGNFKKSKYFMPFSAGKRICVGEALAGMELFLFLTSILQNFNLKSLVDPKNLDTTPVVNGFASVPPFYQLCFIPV

CYP2C19 = CYP2C19 (Homo sapiens (Human), UniProt P33261); assay: as above; format: in vitro ADME; details: recombinant Bactosomes, 10 minutes, 37° C.
Sequence of CYP2C19 (P33261 whole entry): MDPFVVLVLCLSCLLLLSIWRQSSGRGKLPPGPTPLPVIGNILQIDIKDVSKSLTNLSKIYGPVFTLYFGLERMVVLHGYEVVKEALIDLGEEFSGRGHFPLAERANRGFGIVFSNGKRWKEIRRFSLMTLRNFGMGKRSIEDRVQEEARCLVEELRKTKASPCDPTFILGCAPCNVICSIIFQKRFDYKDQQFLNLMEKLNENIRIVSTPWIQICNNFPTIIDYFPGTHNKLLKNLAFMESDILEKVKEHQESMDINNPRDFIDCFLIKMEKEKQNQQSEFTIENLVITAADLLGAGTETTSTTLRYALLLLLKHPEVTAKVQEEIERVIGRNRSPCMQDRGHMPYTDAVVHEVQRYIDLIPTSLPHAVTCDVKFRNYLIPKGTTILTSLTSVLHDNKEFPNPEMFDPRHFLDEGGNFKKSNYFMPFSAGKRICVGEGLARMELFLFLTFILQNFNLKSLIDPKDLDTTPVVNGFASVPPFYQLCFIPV

CYP2D6 = CYP2D6 (Homo sapiens (Human), UniProt P10635); assay: as above; format: in vitro ADME; details: recombinant Bactosomes, 10 minutes, 37° C.
Sequence of CYP2D6 (P10635 whole entry): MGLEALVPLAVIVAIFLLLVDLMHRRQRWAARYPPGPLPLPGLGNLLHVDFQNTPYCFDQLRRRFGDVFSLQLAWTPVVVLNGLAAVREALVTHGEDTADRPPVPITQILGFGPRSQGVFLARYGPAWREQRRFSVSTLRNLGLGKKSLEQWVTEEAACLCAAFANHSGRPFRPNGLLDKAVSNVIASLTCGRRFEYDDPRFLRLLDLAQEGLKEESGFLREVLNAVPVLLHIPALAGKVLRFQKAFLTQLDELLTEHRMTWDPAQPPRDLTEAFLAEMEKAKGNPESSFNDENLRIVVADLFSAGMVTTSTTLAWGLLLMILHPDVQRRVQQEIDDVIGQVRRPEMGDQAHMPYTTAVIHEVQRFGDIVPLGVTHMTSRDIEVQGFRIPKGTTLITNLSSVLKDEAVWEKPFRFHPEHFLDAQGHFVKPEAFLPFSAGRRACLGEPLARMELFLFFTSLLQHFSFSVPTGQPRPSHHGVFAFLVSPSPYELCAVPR

CYP3A4 = CYP3A4 (Homo sapiens (Human), UniProt P08684); assay: as above; format: in vitro ADME; details: recombinant Bactosomes, 10 minutes, 37° C.
Sequence of CYP3A4 (P08684 whole entry): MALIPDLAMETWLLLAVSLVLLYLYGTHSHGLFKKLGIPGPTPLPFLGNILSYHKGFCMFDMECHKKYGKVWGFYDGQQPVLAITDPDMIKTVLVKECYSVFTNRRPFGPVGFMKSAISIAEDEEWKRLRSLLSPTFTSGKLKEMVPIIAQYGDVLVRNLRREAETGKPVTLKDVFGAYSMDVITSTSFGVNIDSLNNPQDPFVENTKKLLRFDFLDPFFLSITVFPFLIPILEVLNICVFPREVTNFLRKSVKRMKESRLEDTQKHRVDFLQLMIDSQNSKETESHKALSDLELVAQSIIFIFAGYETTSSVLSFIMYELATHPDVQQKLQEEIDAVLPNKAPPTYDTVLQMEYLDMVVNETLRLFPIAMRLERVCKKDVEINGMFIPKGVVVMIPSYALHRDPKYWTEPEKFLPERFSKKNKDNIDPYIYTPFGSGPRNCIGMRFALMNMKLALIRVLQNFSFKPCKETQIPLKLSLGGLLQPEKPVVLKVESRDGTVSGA

CYP1A2 = CYP1A2 (Homo sapiens (Human), UniProt P05177); assay: as above
Sequence of CYP1A2 (P05177 whole entry): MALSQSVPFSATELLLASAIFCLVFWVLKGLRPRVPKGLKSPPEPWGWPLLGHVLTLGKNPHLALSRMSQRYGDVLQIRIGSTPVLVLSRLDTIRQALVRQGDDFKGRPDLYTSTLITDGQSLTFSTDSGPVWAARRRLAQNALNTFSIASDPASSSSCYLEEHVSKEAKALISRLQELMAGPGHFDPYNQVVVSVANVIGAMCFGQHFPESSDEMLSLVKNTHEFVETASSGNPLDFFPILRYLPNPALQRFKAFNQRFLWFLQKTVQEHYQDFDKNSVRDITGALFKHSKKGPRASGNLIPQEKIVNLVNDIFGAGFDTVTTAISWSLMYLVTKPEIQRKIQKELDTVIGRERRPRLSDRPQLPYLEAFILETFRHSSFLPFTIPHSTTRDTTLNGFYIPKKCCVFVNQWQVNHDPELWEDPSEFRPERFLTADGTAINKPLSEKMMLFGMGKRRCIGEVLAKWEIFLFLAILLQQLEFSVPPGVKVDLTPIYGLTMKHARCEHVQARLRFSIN

human hepatocytes = assay: Human hepatocyte stability; format: in vitro ADME; details: hepatocyte stability, compared to the reference compounds
Procedure: as §1, §2, §3, §4, §5, §6

Rat hepatocyte stability = format: in vitro ADME; details: rat, pooled rat hepatocytes, 60 minute incubation; for hepatocyte CLint at 1 μM: read-out: Rat Clint (μL/min/million cells); for half-life at 1 μM: read-out: Rat t1/2
Procedure: as §1, §2, §3, §4, §5, §6

| SMILES | pIC50 ([1]; Homo sapiens, THP-1, 24 h) | hepatocyte CLint at 1 μM [2] [µL/min/1e6 cells] | half-life at 1 μM [2] [h] | further results |
| --- | --- | --- | --- | --- |
| C[C@]1(O)CC[C@H](CS(=O)(=O)c2ccc(-c3ccc(C#N)cc3F)cc2C(F)(F)F)CC1 [CHMSA-02-B] | 6.52 | 10.8 | 2.03 | potency in the Thp1 monocytic ATP assay (in words) [1]: excellent potency; pIC50 (CYP2C9): < 5.00; pIC50 (CYP2C19): < 5.00; pIC50 (CYP2D6): < 5.00; pIC50 (CYP3A4): < 5.00; pIC50 (CYP1A2): < 5.00 |
| C[C@]1(O)CC[C@H](CS(=O)(=O)c2ccc(-c3ncc(F)cc3F)c(F)c2)CC1 [CHMSA-03-B, trans-4-(((4-(3,5-Difluoropyridin-2-yl)-3-fluorophenyl)sulfonyl)methyl)-1-methylcyclohexan-1-ol] | 5.27 | < 3 | > 7.67 | metabolic stability (in words) (human hepatocytes): exceptionally good stability |
| C[C@]1(O)CC[C@H](CS(=O)(=O)c2ccc(-c3ccc(C#N)cc3Cl)cc2)CC1 [CHMSA-05-B, 2-Chloro-4′-(((trans-4-hydroxy-4-methylcyclohexyl)methyl)sulfonyl)-[1,1′-biphenyl]-4-carbonitrile] | 5.57 | 6.5 | 3.79 |  |
| O=S(=O)(N[C@H]1CC[C@H](O)CC1)c1ccc(-c2ccc(F)cc2F)cc1 [ABD599, reference compound] |  | 22 | 1.87 |  |
| C[C@]1(O)CC[C@@H](CS(=O)(=O)c2ccc(-c3ccc(C#N)cc3)c(Cl)c2)CC1 [CHMSA-07-A, 2′-chloro-4′-(((cis-4-hydroxy-4-methylcyclohexyl)methyl)sulfonyl)-[1,1′-biphenyl]-4-carbonitrile] | 5.89 |  |  |  |
| C[C@]1(O)CC[C@H](NS(=O)(=O)c2ccc(-c3ccc(F)cc3F)cc2)CC1 [ABD900, reference compound] |  | 6.3 | 3.67 | pIC50 [1]: 5.96; hepatocyte CLint at 1 μM (Rat hepatocyte stability): 79 µL/min/1e6 cells; half-life at 1 μM (Rat hepatocyte stability): 0.298 h |
| C[C@]1(O)CC[C@H](CS(=O)(=O)c2ccc(-c3ncc(F)cc3F)cc2C(F)(F)F)CC1 [CHMSA-09-B, trans-4-(((4-(3,5-Difluoropyridin-2-yl)-2-(trifluoromethyl)phenyl)sulfonyl)methyl)-1-methylcyclohexan-1-ol] | 6.30 | 52.9 | 0.417 |  |
| C[C@]1(O)CC[C@@H](CS(=O)(=O)c2ccc(-c3ncc(F)cc3F)cc2C(F)(F)F)CC1 [CHMSA-09-A, cis-4-(((4-(3,5-difluoropyridin-2-yl)-2-(trifluoromethyl)phenyl)sulfonyl)methyl)-1-methylcyclohexan-1-ol] | 6.52 | 12.1 | 1.87 | potency in the Thp1 monocytic ATP assay (in words) [1]: excellent potency; pIC50 (CYP2C9): < 4.60; pIC50 (CYP2C19): 4.60; pIC50 (CYP2D6): < 4.60; pIC50 (CYP3A4): < 4.60; pIC50 (CYP1A2): < 4.60 |
| C[C@]1(O)CC[C@@H](CS(=O)(=O)c2ccc(-c3ccc(F)cc3F)cc2C(F)(F)F)CC1 [CHMSA-08-A, cis-4-(((2′,4′-difluoro-3-(trifluoromethyl)-[1,1′-biphenyl]-4-yl)sulfonyl)methyl)-1-methylcyclohexan-1-ol] | 6.70 | 18 | 1.22 | potency in the Thp1 monocytic ATP assay (in words) [1]: excellent potency |
| C[C@]1(O)CC[C@H](CS(=O)(=O)c2ccc(-c3ccc(Cl)cc3Cl)cc2)CC1 [CHMSA-11-B, trans-4-(((2′,4′-Dichloro-[1,1′-biphenyl]-4-yl)sulfonyl)methyl)-1-methylcyclohexan-1-ol] | 6.10 | 13.3 | 1.66 |  |
| C[C@]1(O)CC[C@@H](CS(=O)(=O)c2ccc(-c3ccc(C#N)cc3Cl)cc2)CC1 [CHMSA-05-A, 2-chloro-4′-(((cis-4-hydroxy-4-methylcyclohexyl)methyl)sulfonyl)-[1,1′-biphenyl]-4-carbonitrile] | 6.10 | 3.3 | 6.61 | pIC50 (CYP2C9): 5.15; pIC50 (CYP2C19): 4.44; pIC50 (CYP2D6): < 4.30; pIC50 (CYP3A4): 4.58; pIC50 (CYP1A2): < 4.30 |
| C[C@]1(O)CC[C@H](CS(=O)(=O)c2ccc(-c3ccc(C#N)cc3F)cc2)CC1 [CHMSA-01-B, 2-Fluoro-4′-(((trans-4-hydroxy-4-methylcyclohexyl)methyl)sulfonyl)-[1,1′-biphenyl]-4-carbonitrile] | 5.36 | 4.5 | 4.95 |  |
| C[C@]1(O)CC[C@H](CS(=O)(=O)c2ccc(-c3ccc(F)cc3F)c(C#N)c2)CC1 [CHMSA-06-B, 2′,4′-Difluoro-4-(((trans-4-hydroxy-4-methylcyclohexyl)methyl)sulfonyl)-[1,1′-biphenyl]-2-carbonitrile] | 5.35 |  |  |  |
| C[C@]1(O)CC[C@H](CS(=O)(=O)c2ccc(-c3ccc(C#N)cc3)c(Cl)c2)CC1 [CHMSA-07-B, 2′-Chloro-4′-(((trans-4-hydroxy-4-methylcyclohexyl)methyl)sulfonyl)-[1,1′-biphenyl]-4-carbonitrile] | 5.60 |  |  |  |
| C[C@]1(O)CC[C@@H](CS(=O)(=O)c2ccc(-c3ccc(Cl)cc3Cl)cc2)CC1 [CHMSA-11-A, cis-4-(((2′,4′-dichloro-[1,1′-biphenyl]-4-yl)sulfonyl)methyl)-1-methylcyclohexan-1-ol] | 6.30 | 7.8 | 2.87 | pIC50 (CYP2C9): < 5.00; pIC50 (CYP2C19): 4.60; pIC50 (CYP2D6): < 5.00; pIC50 (CYP1A2): < 5.00 |
| C[C@]1(O)CC[C@@H](CS(=O)(=O)c2ccc(-c3ccc(Cl)cc3C#N)cc2)CC1 [CHMSA-10-A, 4-chloro-4′-((cis-4-hydroxy-4-methylcyclohexyl)methanesulfonyl)-(1,1′-biphenyl)-2-carbonitrile] | 5.79 | 30.8 | 0.617 | hepatocyte CLint at 1 μM (Rat hepatocyte stability): 149 µL/min/1e6 cells; half-life at 1 μM (Rat hepatocyte stability): 0.178 h |
| C[C@]1(O)CC[C@@H](CS(=O)(=O)c2ccc(-c3ccc(F)cc3F)c(C#N)c2)CC1 [CHMSA-06-A, 2′,4′-difluoro-4-(((cis-4-hydroxy-4-methylcyclohexyl)methyl)sulfonyl)-[1,1′-biphenyl]-2-carbonitrile] | 5.74 |  |  |  |
| C[C@]1(O)CC[C@H](CS(=O)(=O)c2ccc(-c3ccc(F)cc3F)cc2C(F)(F)F)CC1 [CHMSA-08-B, trans-4-(((2′,4′-Difluoro-3-(trifluoromethyl)-[1,1′-biphenyl]-4-yl)sulfonyl)methyl)-1-methylcyclohexan-1-ol] | 6.40 | 9.8 | 2.3 | pIC50 (CYP2C9): < 4.60; pIC50 (CYP2C19): < 4.60; pIC50 (CYP2D6): < 5.00; pIC50 (CYP1A2): < 5.00 |
